pEC50: −log10 of the molar value.
These molecules were tested on γ-secretase (assay: Screening for γ-secretase-modulating activity, Aβ 42 in SKNBE2 cells carrying APP 695-wild type). Conditions: at 3 μM.
Format: cell-based
Protocol: Screening of the Compounds of the Invention for γ-Secretase-Modulating Activity
Screening was carried out using SKNBE2 cells carrying the APP 695-wild type, grown in DMEM/NUT-mix F12 (HAM) provided by Gibco (cat no. 31330-38) containing 5% Serum/Fe supplemented with 1% non-essential amino acids.
Cells were grown to near confluency.
The screening was performed using the assay as described in Citron et al (1997) Nature Medicine 3: 67.
IC50-Values of Selected Compounds of the Invention on the γ-Secretase Activity.

| Structure (SMILES) | WTAPP SKNBE2 Aβ 42 % Inhibition at 3 μM [%] |
| --- | --- |
| CC(C)CC(C(=O)O)c1cc(Nc2cc(F)cc(F)c2)cc(-c2ccc(C(F)(F)F)cc2)c1 (stereo not drawn) [Compound 1, 2-[5-(3,5-Difluoro-phenylamino)-4′-trifluoromethyl-biphenyl-3-yl]-4-methyl-pentanoic acid] | 73 |
| CC(C)CC(C(=O)O)c1cc(Nc2ccc(F)cc2F)cc(-c2ccc(C(F)(F)F)cc2)c1 (stereo not drawn) [Compound 2, 2-[5-(2,4-Difluoro-phenylamino)-4′-trifluoromethyl-biphenyl-3-yl]-4-methyl-pentanoic acid] | 62 |
| CC(C)CC(C(=O)O)c1cc(Nc2ccc(Cl)cc2)cc(-c2ccc(C(F)(F)F)cc2)c1 (stereo not drawn) [Compound 5, 2-[5-(4-Chloro-phenylamino)-4′-trifluoromethyl-biphenyl-3-yl]-4-methyl-pentanoic acid] | 79 |
| CC(C)CC(C(=O)O)c1cc(Nc2ccc(F)cc2)cc(-c2ccc(C(F)(F)F)cc2)c1 (stereo not drawn) [Compound 6, 2-[5-(4-Fluoro-phenylamino)-4′-trifluoromethyl-biphenyl-3-yl]-4-methyl-pentanoic acid] | 66 |
| CC(C)CC(C(=O)O)c1cc(Nc2ccc(Cl)c(C(F)(F)F)c2)cc(-c2ccc(C(F)(F)F)cc2)c1 (stereo not drawn) [Compound 12, 2-[5-(4-Chloro-3-trifluoromethyl-phenylamino)-4′-trifluoromethyl-biphenyl-3-yl]-4-methyl-pentanoic acid] | 81 |
| CC(C)CC(C(=O)O)c1cc(Nc2ccc(C#N)cc2)cc(-c2ccc(C(F)(F)F)cc2)c1 (stereo not drawn) [Compound 13, 2-[5-(4-Cyano-phenylamino)-4′-trifluoromethyl-biphenyl-3-yl]-4-methyl-pentanoic acid] | 52 |
| CC(C)CC(C)(C(=O)O)c1cc(Nc2ccc(C#N)cc2)cc(-c2ccc(C(F)(F)F)cc2)c1 (stereo not drawn) [Compound 14, 2-[5-(4-Cyano-phenylamino)-4′-trifluoromethyl-biphenyl-3-yl]-2,4-dimethyl-pentanoic acid] | 17 |
| CC(C)CC(C(=O)O)c1cc(Oc2cccc(C(C)C)c2)cc(-c2ccc(C(F)(F)F)cc2)c1 (stereo not drawn) [Compound 15, 2-[5-(3-Isopropyl-phenoxy)-4′-trifluoromethyl-biphenyl-3-yl]-4-methyl-pentanoic acid] | 65 |
| COc1cc(Oc2cc(-c3ccc(C(F)(F)F)cc3)cc(C(CC(C)C)C(=O)O)c2)ccc1F (stereo not drawn) [Compound 18, 2-[5-(4-Fluoro-3-methoxy-phenoxy)-4′-trifluoromethyl-biphenyl-3-yl]-4-methyl-pentanoic acid] | 19 |
| COc1ccc(Oc2cc(-c3ccc(C(F)(F)F)cc3)cc(C(CC(C)C)C(=O)O)c2)cc1C(F)(F)F (stereo not drawn) [Compound 19, 2-[5-(4-Methoxy-3-trifluoromethyl-phenoxy)-4′-trifluoromethyl-biphenyl-3-yl]-4-methyl-pentanoic acid] | 22 |
| CC(C)CC(C(=O)O)c1cc(Oc2cccc(C(F)(F)F)c2)cc(-c2ccc(Cl)c(C(F)(F)F)c2)c1 (stereo not drawn) [Compound 22, 4-Methyl-2-[4′-chloro-3′-trifluoromethyl-5-(3-trifluoromethylphenoxy)-biphenyl-3-yl]-pentanoic acid] | 81 |
| CC(C)CC(C(=O)O)c1cc(Oc2cc(F)cc(F)c2)cc(-c2ccc(Cl)c(C(F)(F)F)c2)c1 (stereo not drawn) [Compound 23, 4-Methyl-2-[4′-chloro-3′-trifluoromethyl-5-(3,5-difluorophenoxy)-biphenyl-3-yl]-pentanoic acid] | 80 |
| CC(C)CC(C(=O)O)c1cc(Oc2ccccc2)cc(-c2ccc(C(F)(F)F)cc2)c1 (stereo not drawn) [Compound 24, 4-Methyl-2-(5-phenoxy-4′-trifluoromethyl-biphenyl-3-yl)-pentanoic acid] | 45 |
| CC(C)CC(C(=O)O)c1cc(Oc2ccc(F)cc2)cc(-c2ccc(C(F)(F)F)cc2)c1 (stereo not drawn) [Compound 25, 2-[5-(4-Fluoro-phenoxy)-4′-trifluoromethyl-biphenyl-3-yl]-4-methyl-pentanoic acid] | 54 |
| CC(C)CC(C(=O)O)c1cc(Oc2cccc(F)c2)cc(-c2ccc(C(F)(F)F)cc2)c1 (stereo not drawn) [Compound 26, 2-[5-(3-Fluoro-phenoxy)-4′-trifluoromethyl-biphenyl-3-yl]-4-methyl-pentanoic acid] | 58 |
| COc1ccc(Oc2cc(-c3ccc(C(F)(F)F)cc3)cc(C(CC(C)C)C(=O)O)c2)cc1 (stereo not drawn) [Compound 28, 2-[5-(4-Methoxy-phenoxy)-4′-trifluoromethyl-biphenyl-3-yl]-4-methyl-pentanoic acid] | −3 |
| CC(C)CC(C(=O)O)c1cc(Oc2ccc(Cl)cc2)cc(-c2ccc(C(F)(F)F)cc2)c1 (stereo not drawn) [Compound 29, 2-[5-(4-Chloro-phenoxy)-4′-trifluoromethyl-biphenyl-3-yl]-4-methyl-pentanoic acid] | 62 |
| CC(C)CC(C(=O)O)c1cc(Oc2cccc(C(F)(F)F)c2)cc(-c2cc(F)cc(C(F)(F)F)c2)c1 (stereo not drawn) [Compound 31, 2-[3′-Fluoro-5′-trifluoromethyl-5-(3-trifluoromethyl-phenoxy)-biphenyl-3-yl]-4-methyl-pentanoic acid] | 84 |
| CC(C)CC(C(=O)O)c1cc(Oc2cc(F)cc(C(F)(F)F)c2)cc(-c2cc(F)cc(C(F)(F)F)c2)c1 (stereo not drawn) [Compound 32, 2-[3′-Fluoro-5-(3-fluoro-5-trifluoromethyl-phenoxy)-5′-trifluoromethyl-biphenyl-3-yl]-4-methyl-pentanoic acid] | 87 |
| CC(C)CC(C(=O)O)c1cc(Oc2cc(F)cc(F)c2)cc(-c2cc(F)cc(C(F)(F)F)c2)c1 (stereo not drawn) [Compound 33, 2-[5-(3,5-Difluoro-phenoxy)-3′-fluoro-5′-trifluoromethyl-biphenyl-3-yl]-4-methyl-pentanoic acid] | 59 |
| CC(C)CC(C(=O)O)c1cc(Oc2cccc(C(F)(F)F)c2)cc(-c2cc(C(F)(F)F)cc(C(F)(F)F)c2)c1 (stereo not drawn) [Compound 35, 2-[3′,5′-Bis-trifluoromethyl-5-(3-trifluoromethyl-phenoxy)-biphenyl-3-yl]-4-methyl-pentanoic acid] | 90 |

Same assay, conditions: read-out: WTAPP SKNBE2 Aβ 42 EC50

| pEC50 | Structure (SMILES) |
| --- | --- |
| 6.52 | CC(C)CC(C(=O)O)c1cc(Nc2cc(C(F)(F)F)cc(C(F)(F)F)c2)cc(-c2ccc(C(F)(F)F)cc2)c1 (stereo not drawn) [Compound 3, 2-[5-(3,5-Bis-trifluoromethyl-phenylamino)-4′-trifluoromethyl-biphenyl-3-yl]-4-methyl-pentanoic acid] |
| 6.54 | CC(C)CC(C(=O)O)c1cc(Nc2ccc(C(C)C)cc2)cc(-c2ccc(C(F)(F)F)cc2)c1 (stereo not drawn) [Compound 4, 2-[5-(4-Isopropyl-phenylamino)-4′-trifluoromethyl-biphenyl-3-yl]-4-methyl-pentanoic acid] |
| 6.38 | CC(C)CC(C(=O)O)c1cc(Nc2cc(Cl)cc(Cl)c2)cc(-c2ccc(C(F)(F)F)cc2)c1 (stereo not drawn) [Compound 7, 2-[5-(3,5-Dichloro-phenylamino)-4′-trifluoromethyl-biphenyl-3-yl]-4-methyl-pentanoic acid] |
| 6.70 | CC(C)CC(C(=O)O)c1cc(Nc2cc(C(F)(F)F)ccc2C(F)(F)F)cc(-c2ccc(C(F)(F)F)cc2)c1 (stereo not drawn) [Compound 8, 2-[5-(2,5-Bis-trifluoromethyl-phenylamino)-4′-trifluoromethyl-biphenyl-3-yl]-4-methyl-pentanoic acid] |
| 6.55 | CC(C)CC(C(=O)O)c1cc(Nc2ccc(F)cc2C(F)(F)F)cc(-c2ccc(C(F)(F)F)cc2)c1 (stereo not drawn) [Compound 9, 2-[5-(4-Fluoro-2-trifluoromethyl-phenylamino)-4′-trifluoromethyl-biphenyl-3-yl]-4-methyl-pentanoic acid] |
| 6.39 | CC(C)CC(C(=O)O)c1cc(Nc2cccc(C(F)(F)F)c2)cc(-c2ccc(C(F)(F)F)cc2)c1 (stereo not drawn) [Compound 10, 4-Methyl-2-[4′-trifluoromethyl-5-(3-trifluoromethyl-phenylamino)-biphenyl-3-yl]-pentanoic acid] |
| 6.30 | CC(C)CC(C(=O)O)c1cc(Nc2ccc(C(F)(F)F)cc2)cc(-c2ccc(C(F)(F)F)cc2)c1 (stereo not drawn) [Compound 11, 4-Methyl-2-[4′-trifluoromethyl-5-(4-trifluoromethyl-phenylamino)-biphenyl-3-yl]-pentanoic acid] |
| 5.65 | CC(C)CC(C(=O)O)c1cc(Oc2ccc(C(F)(F)F)cc2)cc(-c2ccc(C(F)(F)F)cc2)c1 (stereo not drawn) [Compound 16, 4-Methyl-2-[4′-trifluoromethyl-5-(4-trifluoromethyl-phenoxy)-biphenyl-3-yl]-pentanoic acid] |
| 5.73 | CC(C)CC(C(=O)O)c1cc(Oc2cc(F)c(F)c(F)c2)cc(-c2ccc(C(F)(F)F)cc2)c1 (stereo not drawn) [Compound 17, 4-Methyl-2-[4′-trifluoromethyl-5-(3,4,5-trifluoro-phenoxy)-biphenyl-3-yl]-pentanoic acid] |
| 6.18 | CC(C)CC(C(=O)O)c1cc(Oc2cccc(C(F)(F)F)c2)cc(-c2ccc(C(F)(F)F)cc2)c1 (stereo not drawn) [Compound 20, 2 4-Methyl-2-[4′-trifluoromethyl-5-(3-trifluoromethyl-phenoxy)-biphenyl-3-yl]-pentanoic acid] |
| 6.11 | CC(C)CC(C(=O)O)c1cc(Oc2cc(F)cc(F)c2)cc(-c2ccc(C(F)(F)F)cc2)c1 (stereo not drawn) [Compound 27, 2-[5-(3,5-Difluoro-phenoxy)-4′-trifluoromethyl-biphenyl-3-yl]-4-methyl-pentanoicacid] |
| 6.59 | CC(C)CC(C(=O)O)c1cc(Oc2cc(F)cc(C(F)(F)F)c2)cc(-c2cc(C(F)(F)F)cc(C(F)(F)F)c2)c1 (stereo not drawn) [Compound 34, 2-[5-(3-Fluoro-5-trifluoromethyl-phenoxy)-3′,5′-bis-trifluoromethyl-biphenyl-3-yl]-4-methyl-pentanoic acid] |

Source: patent US7557244B2, “Substituted biphenyl carboxylic acids and derivatives thereof” (Ortho-McNeil Pharmaceutical, Inc., priority 2006, dated 2009)
